{
  "source": "patent US11291666B2",
  "about": "“Uses” (INTRA-CELLULAR THERAPIES, INC., priority 2016, dated 2022)",
  "key": {"[1]": {"system": "BV2 cells", "test": "RT-qPCR of selected genes in BV2 cells with ITI-214, cyclase activators and PKA/PKG inhibitors", "type": "cell-based, mouse", "conditions": "10 μM forskolin, 5 μM DEANO or 100 nM ANP", "protocol": "In a further experiment a group of genes is selected for further analysis by RT-qPCR. For comparison, genes are analyzed which have been implicated in the scientific literature in microglial and astrocyte activation, including genes in the complement pathway.\nAll sample values are normalized to an average of 3 reference genes and to vehicle control (ΔΔCt). The error bars represent the mean+/−SEM (n=4). From left to right, for each cytokine grouping, the bars indicate samples treated with: LPS, 0.1 μM 214+LPS, 0.4 μM 214+LPS, 1.1 μM 214+LPS, 3.3 μM 214+LPS, 10 μM 214+LPS, for each particular gene shown on the X-axis. Significant changes between LPS and 10 μM ITI-214+LPS (A) and Vehicle and 10 μM ITI-214 (B) are marked on the X-axis gene names and are calculated using a one-way ANOVA. * p<0.05, **p<0.01, ***p<0.001, ****p<0.0001.\nIn one particular experiment, BV2 cells are treated with 10 μM forskolin (FSK) to activate adenylyl cyclases, 5 μM DEANO to activate soluble guanylyl cyclase, or 100 nM atrial natriuretic peptide (ANP) to activate particulate guanylyl cyclase. […] Upon combining forskolin with ITI-214 some of the effects of ITI-214 inhibition can be increased. […] However, LIF reverts to LPS-level expression when forskolin is added.\nNote that gene expression levels upon addition of PKA or PKG inhibitor to 10 μM ITI-214 are on the order of those relative to LPS treatment alone were reduced to levels equivalent to 3.3 μM ITI-214."}, "[2]": {"system": "BV2 cells", "test": "Quantitative PCR of inflammatory cytokine mRNA in LPS-treated BV2 cells", "type": "cell-based, mouse", "protocol": "Levels of IL1β are measured using quantitative PCR of IL1β mRNA. IL1β is considered a marker of inflammation. Results are depicted in FIG. 2 (RQ: relative quantification of changes in gene expression in treated versus control samples; ***p<0.01 vs control, √p<0.01 vs LPS alone; ANOVA with Newman-Keuls post-hoc test).\nBV2 cells are pretreated with compound, ITI-214 or rolipram, a PDE4 inhibitor, then stimulated with 50 ng/ml LPS for 4 hours. Expression levels of TNF, IL1β, Ccl2, and IL6 are measured. Normalized mRNA levels are shown as change from vehicle (ΔΔCt) and compared using a one-way ANOVA. […] The mRNA transcripts for TNF, IL1β, and Ccl2—three of the four cytokines studied in vivo—were elevated in BV2 cells treated with 50 ng/ml LPS.\n(§1) The test compound is added first, the LPS is added one hour later, and the cells and/or media are harvested at five hours from commencement of the experiment.\n(§2) RTqPCR: RNA from BV2 cells purified using RNeasyKit (Qiagen) and from mouse tissue using TRIzol (Ambion). TaqMan primer-probe assays from Thermo Fisher. mRNA levels for all conditions are normalized to GAPDH and to vehicle control (ΔΔCt). Data are analyzed statistically using one-way ANOVA with the Bonferroni post-test for multiple comparisons."}, "[3]": {"system": "inflammatory gene expression in mouse striatum", "test": "Inflammatory gene expression in mouse striatum after LPS (Q-PCR)", "type": "in vivo", "conditions": "Striatum Mouse + LPS; initial results", "protocol": "as §2\nThe results are based upon an evaluation of samples using Q-PCR.\nData from a further experiment measuring the effect of PDE1 inhibition on inflammatory gene expression in mouse striatum is depicted in FIG. 7. […] Striatal tissue is isolated and flash frozen, and RNA is extracted. Measurements from RT-qPCR are shown as log 2 fold change (2ΔΔCt). n=4 *p<0.05, **p<0.01, ***p<0.001, ****p<0.0001.\nData from yet another experiment measuring the effect of PDE1 inhibition on inflammatory gene expression in mouse striatum is depicted in FIG. 8. […] Striatal tissue is analyzed for mRNA levels of TNF, IL1β, Ccl2, and IL6. Expression levels are shown as change in Q-PCR signal from vehicle (ΔΔCt) and compared using an ANOVA. * p<0.05, **p<0.01, ***p<0.001."}, "[4]": {"system": "BV2 cells", "test": "RNAseq analysis of LPS-stimulated BV2 cells, differentially expressed transcripts", "type": "cell-based, mouse", "conditions": "for genes significantly affected by this compound but not the other (Compound 214 / Rolipram): LPS-stimulated BV2 cells", "protocol": "as §1\nRNASeq: Flashfreeze BV2cells, isolate RNA, prepare a library using polyA selection, and conduct 1×50 bp single read sequencing on the Illumina HiSeq 2500 in High Output mode (using V4 chemistry). Genes are mapped to reference genome (GRCm38) using CLC Genomics Server. Number of reads per sample average ˜17 million. Differential gene expression analysis is performed using DESeq2software (Bioconductor.org). Differentially expressed genes (p<0.01, Waldtest) are reported as log 2(fold change)."}, "[5]": {"system": "retinal ganglion cells", "test": "Optic nerve injury (optic crush) model", "type": "in vivo, mouse", "conditions": "mice; intraocular injection after optic nerve injury; 14 days; FIG. 12", "protocol": "A PDE1 inhibitory compound is tested in an optic nerve injury model (i.e., the “optic crush” model). The studies described below are carried out using the selective PDE1 inhibitor IC200041, which has the following structure:\nIn this model, optic nerve surgeries are carried out on male mice 8 wk of age (average body weight, 20-26 g) under general anesthesia, as described previously (Yin Y, et al., Oncomodulin links inflammation to optic nerve regeneration. Proc Natl Acad Sci USA. 2009; 106:19587-19592). Following nerve injury, 3 μl of fluid is removed from the eye and a solution containing the PDE1 inhibitory compound is injected intraocularly.\nA total of 4 mouse retinas are treated with the PDE1 inhibitor, and phosphate buffered saline (PBS) is administered to a total of 10 mouse retinas as a control. Mice are typically euthanized with an overdose of anesthesia 14 days after optic nerve injury and are perfused with saline and 4% paraformaldehyde (PFA). These mice are 10 weeks old when killed. Optic nerves and eyes are dissected and postfixed in PFA. […] Axons are counted manually in at least 8 longitudinal sections per case at pre-specified distances from the injury site, and these numbers were converted into the number of regenerating axons at various distances."}, "[6]": {"system": "HL60 cells", "test": "Total cGMP levels in PMA-differentiated HL60 cells with ANP and ionomycin (competitive ELISA)", "type": "cell-based, human", "protocol": "We have shown that there is a synergistic effect between ANP and PDE1 inhibition. An immortalized human pro-myeloid cell line (HL60 from ATCC) is grown, differentiated and harvested as described in Bender, A T, and Beavo, J A, 2006, PNAS 103, 460-465. The cells are grown in HEPES buffered RPMI 1640 medium with penicillin, streptomycin, and 10% fetal bovine serum. Phorbol-12-myristate-13-acetate (PMA), at 100 nM for 3 days, is used to differentiate the HL60 cells into macrophage-like cells. Following differentiation, the cells are incubated with a PDE1 inhibitor or vehicle (DMSO) beginning at time 0. At 40 minutes, 5 μM ionomycin (a calcium ionophore) is added. At 50 minutes, 100 nM ANP was added. At 60 minutes, the cells are harvested. Total cGMP levels are measured using a competitive ELISA (Bender and Beavo, 2006)."}, "[7]": {"conditions": "BV2 cells, Compound 214 at 10 μM, FIG. 4a"}},
  "data": [
    {"smiles": "CCN(CC)/[N+]([O-])=N/[O-].[Na+]", "note": "[DEANO, reference compound]", "values": [
      {"measurement": "effect of the activator alone on LPS induction of the selected genes", "setting": "[1]", "value": "little or no effect"}
    ]},
    {"smiles": "CC[C@H](C)[C@@H]1NC(=O)[C@H](CCCNC(=N)N)NC(=O)[C@H](CC(=O)O)NC(=O)[C@H](CCSC)NC(=O)[C@H](CCCNC(=N)N)NC(=O)CNC(=O)CNC(=O)[C@H](Cc2ccccc2)NC(=O)[C@@H](NC(=O)[C@H](CO)NC(=O)[C@H](CO)NC(=O)[C@H](CCCNC(=N)N)NC(=O)[C@H](CCCNC(=N)N)NC(=O)[C@H](CC(C)C)NC(=O)[C@@H](N)CO)CSSC[C@@H](C(=O)N[C@@H](CC(N)=O)C(=O)N[C@@H](CO)C(=O)N[C@@H](Cc2ccccc2)C(=O)N[C@@H](CCCNC(=N)N)C(=O)N[C@@H](Cc2ccc(O)cc2)C(=O)O)NC(=O)CNC(=O)[C@H](CC(C)C)NC(=O)CNC(=O)[C@H](CO)NC(=O)[C@H](CCC(N)=O)NC(=O)[C@H](C)NC(=O)CNC1=O", "note": "[atrial natriuretic peptide, reference compound]", "values": [
      {"measurement": "effect of the activator alone on LPS induction of the selected genes", "setting": "[1]", "value": "little or no effect"}
    ]},
    {"smiles": "COc1ccc(C2CNC(=O)C2)cc1OC1CCCC1", "note": "(stereo not shown) [rolipram, reference compound]", "values": [
      {"measurement": "Chemokine (C-C) motif Ligand 2 expression (Q-PCR)", "setting": "[2]; BV2 + LPS, initial results", "value": "Down"},
      {"measurement": "Interleukin 1 beta expression (Q-PCR)", "setting": "[2]; BV2 + LPS, initial results", "value": "UP UP"},
      {"measurement": "Tumor necrosis factor expression (Q-PCR)", "setting": "[2]; BV2 + LPS, initial results", "value": "Down"},
      {"measurement": "LPS-induced increase in expression of Ccl2", "setting": "[2]; [7]", "value": "reducing"},
      {"measurement": "LPS-induced increase in expression of IL1β", "setting": "[2]; [7]", "value": "increasing"},
      {"measurement": "LPS-induced increase in expression of TNFα", "setting": "[2]; [7]", "value": "reducing"},
      {"measurement": "Chemokine (C-C) motif Ligand 2 expression (Q-PCR)", "setting": "[3]", "value": "Down"},
      {"measurement": "Interleukin 1 beta expression (Q-PCR)", "setting": "[3]", "value": "UP-UP"},
      {"measurement": "Interleukin 6 expression (Q-PCR)", "setting": "[3]", "value": "UP-UP"},
      {"measurement": "Oncostatin M expression (Q-PCR)", "setting": "[3]", "value": "Down"},
      {"measurement": "Tumor necrosis factor expression (Q-PCR)", "setting": "[3]", "value": "Down"},
      {"measurement": "mRNA transcripts decreased in the presence of LPS + compound vs. LPS alone", "setting": "[4]; BV2 cells, RNAseq", "value": 209, "unit": "transcripts"},
      {"measurement": "transcripts elevated in the presence of LPS + compound vs. LPS alone", "setting": "[4]; BV2 cells, RNAseq", "value": 156, "unit": "transcripts"},
      {"measurement": "genes significantly affected by this compound but not the other (Compound 214 / Rolipram)", "setting": "[4]; further RNASeq analysis", "value": 251, "unit": "genes"},
      {"measurement": "genes significantly affected by this compound but not the other (Compound 214 / Rolipram)", "setting": "[4]; still a further experiment", "value": 1463, "unit": "genes"}
    ]},
    {"smiles": "CN1C(=O)c2c(nn(Cc3ccc(-c4ccccn4)cc3)c2Nc2ccccc2)N2C1=N[C@@H]1CCC[C@@H]12", "note": "[IC200041]", "values": [
      {"measurement": "survival of retinal ganglion cells compared with the PBS control", "setting": "[5]", "value": "highly effective"}
    ]},
    {"smiles": "CN1C(=O)c2c(nn(Cc3ccc(C(F)(F)F)cc3)c2Nc2ccccc2)N2C1=N[C@@H]1CCC[C@@H]12", "note": "[Example 20 of U.S. Pat. No. 8,273,750, (6aR,9aS)-3-(phenylamino)-5,6a,7,8,9,9a-hexahydro-5-methyl-2-(4-(trifluoromethyl)-benzyl)-cyclopent[4,5]imidazo[1,2-a]pyrazolo[4,3-e]pyrimidin-4(2H)-one]", "values": [
      {"measurement": "cGMP level, ANP in combination with the PDE1 inhibitor versus either alone", "setting": "[6]; 100 nM ANP + 100 nM PDE1 inhibitor", "value": "greater"},
      {"measurement": "decreasing cGMP signal caused by activation of PDE1 by ionomycin", "setting": "[6]; PDE1 inhibitor + sub-optimal ANP, ionomycin 5 μM", "value": "synergistically prevented"},
      {"measurement": "cGMP level, co-treatment with ANP and the PDE1 inhibitor versus ANP and SCH 51866", "setting": "[6]; SCH 51866 used at 5 μM", "value": "much greater"},
      {"measurement": "effect of ionomycin on cGMP when combined with ANP and the PDE1 inhibitor", "setting": "[6]; ionomycin 5 μM", "value": "only a weak cGMP lowering effect"}
    ]}
  ]
}
